In ChEMBL document CHEMBL6121006, “Marine natural product-inspired discovery of novel BRD4 inhibitors with anti-inflammatory activity” (Eur J Med Chem, 2025):
The source made the active and inactive calls. The rule behind the calls is not given here.

Assays:
[1] = target: Transcription initiation factor TFIID subunit 1 (Homo sapiens) (UniProt P21675); experiment: Inhibition of TAF1 (unknown origin) at 1 uM incubated for 2 hrs by TR-FRET assay relative to control
[2] = target: T1, Bromodomain-containing protein 4 (Homo sapiens, UniProt O60885); experiment: Inhibition of human recombinant BRD4 BD1 (42 to 167 residues) extracted from Escherichia coli BL21 (DE3) incubated for 2 hrs by TR-FRET assay
Mus musculus [3] = experiment: Antiinflammatory activity against LPS-induced C57BL/6 mouse acute inflammation model assessed as reduction of renal injury at 100 mg/kg, po pre-administered for 2 hrs followed by LPS stimulation for 6 hrs; type: functional, organism-based; conditions: time 8.0 hrs
[4] = Toxicity in C57BL/6 mouse effect on spleen at 100 mg/kg, po measured after 24 hrs; type: organism-based; conditions: in vivo
RAW264.7 [5] = experiment: Anti-inflammatory activity in mouse RAW264.7 cells assessed as inhibition of LPS-induced NO production preincubated with compound for 24 hrs followed by LPS stimulation by Griess reagent based analysis; type: functional, cell-based
Mus musculus [6] = experiment: Antiinflammatory activity against LPS-induced C57BL/6 mouse acute inflammation model assessed as increase in proportion of normal renal tubules at 100 mg/kg, po pre-administered for 2 hrs followed by LPS stimulation for 6 hrs; type: functional, organism-based; conditions: time 8.0 hrs
[7] = target: Bromodomain-containing protein 3 (Homo sapiens) (UniProt Q15059); experiment: Inhibition of BRD3 BD1 (unknown origin) at 1 uM incubated for 2 hrs by TR-FRET assay relative to control
Mus musculus [8] = experiment: Antiinflammatory activity against LPS-induced C57BL/6 mouse acute inflammation model assessed as improvement of internal brush boundary structure at 100 mg/kg, po pre-administered for 2 hrs followed by LPS stimulation for 6 hrs; type: functional, organism-based; conditions: time 8.0 hrs
Mus musculus [9] = experiment: Antiinflammatory activity against LPS-induced C57BL/6 mouse acute inflammation model assessed as rescue of damaged glomerular cells in kidney at 50 to 100 mg/kg, po pre-administered for 2 hrs followed by LPS stimulation for 6 hrs; type: functional, organism-based; conditions: dose 50-100 mg/kg, time 8.0 hrs
[10] = target: T1, Bromodomain-containing protein 4; experiment: Induction of thermal stabilization of human recombinant BRD4 […] (42 to 167 residues) extracted from Escherichia coli BL21 (DE3) incubated for 30 mins by thermal shift assay
[11] = target: Bromodomain-containing protein 2 (Homo sapiens) (UniProt P25440); experiment: Inhibition of BRD2 BD2 (unknown origin) at 1 uM incubated for 2 hrs by TR-FRET assay relative to control
Mus musculus [12] = experiment: Antiinflammatory activity against LPS-induced C57BL/6 mouse acute inflammation model assessed as improvement of hepatic necrosis in liver at 50 to 100 mg/kg, po pre-administered for 2 hrs followed by LPS stimulation for 6 hrs; type: functional, organism-based; conditions: dose 50-100 mg/kg, time 8.0 hrs
THP-1 [13] = experiment: Anti-inflammatory activity in human THP-1 cells assessed as inhibition of LPS-induced TNF-alpha level preincubated with compound for 2 hrs followed by LPS stimulation and measured after 22 hrs by ELISA method; type: functional, cell-based; conditions: dose 2.5-20 µM, time 24.0 hrs
[14] = target: Bromodomain-containing protein 2 (Homo sapiens) (UniProt P25440); experiment: Inhibition of BRD2 BD1 (unknown origin) at 1 uM incubated for 2 hrs by TR-FRET assay relative to control
Mus musculus [15] = experiment: Antiinflammatory activity against C57BL/6 mouse acute inflammation model assessed as reduction in LPS induced lung pulmonary hemorrhage at 50 to 100 mg/kg, po pre-administered for 2 hrs followed by LPS stimulation for 6 hrs; type: functional, organism-based; conditions: dose 50-100 mg/kg, time 8.0 hrs
Mus musculus [16] = experiment: Antiinflammatory activity against LPS-induced C57BL/6 mouse acute inflammation model assessed as rescue of damaged renal tubule cells in kidney at 50 to 100 mg/kg, po pre-administered for 2 hrs followed by LPS stimulation for 6 hrs; type: functional, organism-based; conditions: dose 50-100 mg/kg, time 8.0 hrs
Mus musculus [17] = experiment: Antiinflammatory activity against C57BL/6 mouse acute inflammation model assessed as inhibition of LPS-induced IL-6 level at 50 to 100 mg/kg, po pre-administered for 2 hrs followed by LPS stimulation for 6 hrs by ELISA method; type: functional, organism-based; conditions: dose 50-100 mg/kg, time 8.0 hrs
RAW264.7 [18] = experiment: Anti-inflammatory activity in mouse RAW264.7 cells assessed as inhibition of LPS-induced NO production at 10 uM preincubated with compound for 24 hrs followed by LPS stimulation by Griess reagent based analysis relative to control; type: functional; set-up: scale not given: the % may be the effect or the level left
THP-1 [19] = experiment: Cytotoxicity against human THP-1 cells at 20 uM measured after 24 hrs by CCK8 method; type: functional, cell-based
[20] = Toxicity in C57BL/6 mouse effect on body weight at 100 mg/kg, po measured after 24 hrs; type: organism-based; conditions: in vivo
THP-1 [21] = experiment: Anti-inflammatory activity in human THP-1 cells assessed as inhibition of LPS-induced IL-6 level preincubated with compound for 2 hrs followed by LPS stimulation and measured after 22 hrs by ELISA method; type: functional, cell-based; conditions: dose 2.5-20 µM, time 24.0 hrs
Mus musculus [22] = experiment: Antiinflammatory activity against LPS-induced C57BL/6 mouse acute inflammation model assessed as decrease in infiltration of renal interstitial inflammatory cells at 100 mg/kg, po pre-administered for 2 hrs followed by LPS stimulation for 6 hrs; type: functional, organism-based; conditions: time 8.0 hrs
Mus musculus [23] = experiment: Antiinflammatory activity against LPS-induced C57BL/6 mouse acute inflammation model assessed as improvement of excessive inflammatory cell infiltration in liver at 50 to 100 mg/kg, po pre-administered for 2 hrs followed by LPS stimulation for 6 hrs; type: functional, organism-based; conditions: dose 50-100 mg/kg, time 8.0 hrs
Mus musculus [24] = experiment: Antiinflammatory activity against LPS-induced C57BL/6 mouse acute inflammation model assessed as rescue of increased inflammatory cell infiltration in kidney at 50 to 100 mg/kg, po pre-administered for 2 hrs followed by LPS stimulation for 6 hrs; type: functional, organism-based; conditions: dose 50-100 mg/kg, time 8.0 hrs
[25] = Toxicity in C57BL/6 mouse effect on intestine at 100 mg/kg, po measured after 24 hrs; type: organism-based; conditions: in vivo
[26] = target: T1, Bromodomain-containing protein 4; experiment: Inhibition of human recombinant BRD4 BD2 (349 to 460 residues) extracted from Escherichia coli BL21 (DE3) at 10 uM incubated for 2 hrs by TR-FRET assay relative to control
[27] = target: T1, Bromodomain-containing protein 4; experiment: Inhibition of human recombinant BRD4 BD1 (42 to 167 residues) extracted from Escherichia coli BL21 (DE3) at 10 uM incubated for 2 hrs by TR-FRET assay relative to control
[28] = Toxicity in C57BL/6 mouse effect on liver at 100 mg/kg, po measured after 24 hrs; type: organism-based; conditions: in vivo

Chain of Bromodomain-containing protein 2 (Homo sapiens) (P25440 whole entry, looked up): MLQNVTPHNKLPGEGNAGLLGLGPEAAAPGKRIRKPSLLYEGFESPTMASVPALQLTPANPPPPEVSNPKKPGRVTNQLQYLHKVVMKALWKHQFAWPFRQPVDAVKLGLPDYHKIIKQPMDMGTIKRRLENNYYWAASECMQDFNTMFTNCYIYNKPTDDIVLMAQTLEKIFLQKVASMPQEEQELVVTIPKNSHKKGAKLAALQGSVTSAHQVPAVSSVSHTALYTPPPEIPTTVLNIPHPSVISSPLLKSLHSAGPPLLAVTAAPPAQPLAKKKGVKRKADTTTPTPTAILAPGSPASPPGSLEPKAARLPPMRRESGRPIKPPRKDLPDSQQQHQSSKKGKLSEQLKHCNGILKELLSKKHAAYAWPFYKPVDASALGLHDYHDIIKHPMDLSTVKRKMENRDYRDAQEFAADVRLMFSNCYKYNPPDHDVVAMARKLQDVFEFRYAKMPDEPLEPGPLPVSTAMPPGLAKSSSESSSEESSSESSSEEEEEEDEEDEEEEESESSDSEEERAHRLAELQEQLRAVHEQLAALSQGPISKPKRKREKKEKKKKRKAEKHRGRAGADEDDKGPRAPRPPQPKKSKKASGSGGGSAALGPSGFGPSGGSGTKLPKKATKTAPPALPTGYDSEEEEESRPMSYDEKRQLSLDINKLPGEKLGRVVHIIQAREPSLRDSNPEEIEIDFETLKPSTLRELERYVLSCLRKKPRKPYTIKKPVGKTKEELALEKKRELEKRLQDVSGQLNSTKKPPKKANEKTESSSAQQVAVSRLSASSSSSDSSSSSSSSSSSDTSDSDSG
Chain of Transcription initiation factor TFIID subunit 1 (Homo sapiens) (P21675 whole entry, the tested form may be a part): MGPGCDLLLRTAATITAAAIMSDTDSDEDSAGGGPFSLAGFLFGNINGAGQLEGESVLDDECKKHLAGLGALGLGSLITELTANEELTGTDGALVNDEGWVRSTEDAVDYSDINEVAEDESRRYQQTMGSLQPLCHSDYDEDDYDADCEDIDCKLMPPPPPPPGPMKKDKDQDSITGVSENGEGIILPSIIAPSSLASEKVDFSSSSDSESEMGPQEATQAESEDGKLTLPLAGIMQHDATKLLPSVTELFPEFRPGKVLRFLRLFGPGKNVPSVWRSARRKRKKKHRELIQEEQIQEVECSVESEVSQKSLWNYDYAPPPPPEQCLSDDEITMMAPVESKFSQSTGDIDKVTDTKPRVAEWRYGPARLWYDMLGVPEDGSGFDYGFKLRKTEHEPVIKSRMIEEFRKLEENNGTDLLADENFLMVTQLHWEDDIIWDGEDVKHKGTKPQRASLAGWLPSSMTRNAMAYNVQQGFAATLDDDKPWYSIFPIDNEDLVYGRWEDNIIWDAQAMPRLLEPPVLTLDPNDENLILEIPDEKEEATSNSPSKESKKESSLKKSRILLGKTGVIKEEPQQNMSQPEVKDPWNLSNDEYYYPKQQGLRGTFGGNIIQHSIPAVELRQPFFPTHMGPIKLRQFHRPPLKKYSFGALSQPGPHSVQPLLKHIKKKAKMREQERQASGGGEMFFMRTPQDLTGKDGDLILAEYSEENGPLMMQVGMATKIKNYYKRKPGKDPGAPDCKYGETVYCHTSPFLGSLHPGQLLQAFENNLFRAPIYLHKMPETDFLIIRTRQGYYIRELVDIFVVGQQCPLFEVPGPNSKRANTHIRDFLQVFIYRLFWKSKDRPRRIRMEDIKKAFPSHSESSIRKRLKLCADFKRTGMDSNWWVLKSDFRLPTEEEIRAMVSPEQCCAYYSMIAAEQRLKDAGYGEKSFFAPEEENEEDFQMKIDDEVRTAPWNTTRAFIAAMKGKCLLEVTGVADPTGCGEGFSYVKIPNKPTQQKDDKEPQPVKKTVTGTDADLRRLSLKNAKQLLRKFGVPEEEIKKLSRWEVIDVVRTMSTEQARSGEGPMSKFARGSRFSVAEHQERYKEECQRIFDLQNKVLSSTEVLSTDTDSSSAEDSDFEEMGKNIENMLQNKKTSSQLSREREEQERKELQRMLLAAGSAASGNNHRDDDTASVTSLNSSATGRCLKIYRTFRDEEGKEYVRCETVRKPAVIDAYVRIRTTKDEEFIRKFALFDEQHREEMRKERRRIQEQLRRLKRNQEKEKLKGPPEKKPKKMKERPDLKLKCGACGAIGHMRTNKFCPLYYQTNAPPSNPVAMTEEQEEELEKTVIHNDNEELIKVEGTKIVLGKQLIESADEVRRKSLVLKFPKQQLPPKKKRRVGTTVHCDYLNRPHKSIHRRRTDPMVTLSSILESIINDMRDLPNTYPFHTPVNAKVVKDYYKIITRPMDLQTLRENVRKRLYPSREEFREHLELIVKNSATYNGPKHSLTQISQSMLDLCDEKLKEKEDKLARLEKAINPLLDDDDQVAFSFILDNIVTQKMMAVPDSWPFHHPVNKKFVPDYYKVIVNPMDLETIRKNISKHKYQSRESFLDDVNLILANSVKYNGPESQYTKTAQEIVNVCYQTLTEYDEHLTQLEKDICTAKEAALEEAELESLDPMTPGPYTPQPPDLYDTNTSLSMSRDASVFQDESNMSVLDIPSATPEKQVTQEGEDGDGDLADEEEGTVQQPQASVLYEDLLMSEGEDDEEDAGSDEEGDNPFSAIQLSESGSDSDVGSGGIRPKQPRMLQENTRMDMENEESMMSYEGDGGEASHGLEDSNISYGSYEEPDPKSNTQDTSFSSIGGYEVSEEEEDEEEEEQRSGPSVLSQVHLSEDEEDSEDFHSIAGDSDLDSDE
Chain of Bromodomain-containing protein 3 (Homo sapiens) (Q15059 2-726 limits assumed): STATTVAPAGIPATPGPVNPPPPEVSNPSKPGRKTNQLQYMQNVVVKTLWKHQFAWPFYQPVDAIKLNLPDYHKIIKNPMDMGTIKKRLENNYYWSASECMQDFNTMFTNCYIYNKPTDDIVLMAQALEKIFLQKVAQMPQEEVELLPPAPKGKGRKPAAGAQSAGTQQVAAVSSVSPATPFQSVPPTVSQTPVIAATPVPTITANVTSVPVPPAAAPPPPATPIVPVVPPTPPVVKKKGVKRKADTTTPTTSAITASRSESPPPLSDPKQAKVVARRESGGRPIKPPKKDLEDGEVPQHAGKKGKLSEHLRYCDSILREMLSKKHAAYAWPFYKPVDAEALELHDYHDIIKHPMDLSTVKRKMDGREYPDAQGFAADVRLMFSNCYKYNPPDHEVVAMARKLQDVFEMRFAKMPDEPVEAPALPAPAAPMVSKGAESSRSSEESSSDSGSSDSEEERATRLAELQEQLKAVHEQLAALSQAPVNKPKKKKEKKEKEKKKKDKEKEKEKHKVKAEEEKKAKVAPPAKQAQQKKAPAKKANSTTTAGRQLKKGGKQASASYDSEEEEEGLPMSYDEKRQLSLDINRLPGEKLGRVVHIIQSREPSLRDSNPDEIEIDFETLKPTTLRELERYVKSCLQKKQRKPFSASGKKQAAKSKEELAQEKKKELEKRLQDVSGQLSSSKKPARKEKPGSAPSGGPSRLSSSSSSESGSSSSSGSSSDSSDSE

COc1ccc(/C=C/c2nc3cc(OC)cc(OC)c3c(=O)[nH]2)cc1
inhibition [1]: 5%
IC50 [2]: 3.81 µM
Activity (Mus musculus [3]): Active
Activity [4]: Non-toxic
IC50 (RAW264.7 [5]): 1.98 µM
Activity (Mus musculus [6]): Active
inhibition [7]: 25%
Activity (Mus musculus [8]): Active
Activity (Mus musculus [9]): Active
Activity [10]: Active
inhibition [11]: 30%
Activity (Mus musculus [12]): Active
Activity (THP-1 [13]): Dose-dependent-effect
inhibition [14]: 24%
Activity (Mus musculus [15]): Active
Activity (Mus musculus [16]): Active
Activity (Mus musculus [17]): Active
Activity (RAW264.7 [18]): 106%
Activity (THP-1 [19]): inactive
Activity [20]: Non-toxic
Activity (THP-1 [21]): Dose-dependent-effect
Activity (Mus musculus [22]): Active
Activity (Mus musculus [23]): Active
Activity (Mus musculus [24]): Active
Activity [25]: Non-toxic
inhibition [26]: 89%
inhibition [27]: 81%
Activity [28]: Non-toxic
